Test results taken from US12509727B2, “Composition for diagnosis of Sjögren's syndrome” (THE CATHOLIC UNIVERSITY OF KOREA INDUSTRY-ACADEMIC …, priority 2017, dated 2025).

Experiments:
Format in all cases: in vivo, human
[1] = tested on: autodigestion marker (ATG5 and LC3B-II) in the conjunctiva; experiment: Immunostaining of ATG5 and LC3B-II of conjunctiva before and after corticosteroid treatment; conditions: SS DE patients after the corticosteroid treatment; representative immunohistochemical images
Procedure: (§1) IC was carried out 15 minutes after the last stained eye solution was permeated by using a polyethersulfone filter (Suopor 200 membrane, Pall Corporation, Port Washington, New York). The filter paper was cut in half (13×6.5 mm). The sides were attached on the upper side-nasal and the upper side-temporal bulbar conjunctiva, respectively. With 0.05% paraformaldehyde (PFA), the filter attached on the upper side-nasal conjunctiva was transferred into a tube containing 2 ml of PBS for immunostaining. The paper attached on the upper side-temporal conjunctiva was collected from the filter paper up to 3 hours for the RNA extraction.
The IC filter paper having isolated epithelial cells was firmly pressed against a silane-coated slide (Muto Pure Chemicals Co., ltd. Tokyo, Japan). Thus, the epithelial cells were transferred onto the slide. They were used for immunofluorescence staining according to the Baudouins protocol. […]
(§2) After applying topical corticosteroids to Sjögren's syndrome dry eye patients, change in the clinical parameters was assessed as well as autodigestion marker expression. After one month with topical corticosteroid therapy with artificial tears, OSDI score, Schirmer I value, TBUT, corneal staining, conjunctival staining, and OSS score were measured as in Example 1. […]

ATG5 mRNA = experiment: Real-time PCR of conjunctival epithelial cells (impression cytology) after corticosteroid treatment; conditions: conjunctival epithelial cells of SS DE patients; level before treatment 13.16±4.36; statistically significantly decreased
Procedure: as §1
(§3) RNAs were isolated from IC using TRIzol reagent (Gibco-Invitrogen, Grand Island, New York) according to the modified protocol (Barabino S et al., Immune response in the conjunctival epithelium of patients with dry eye. Experimental eye research 2010; 91: 524-9). […] The […] method was used for relative quantification. […]
as §2

LC3B-II mRNA = experiment: as above; conditions: conjunctival epithelial cells of SS DE patients; level before treatment 12.93±4.44; statistically significantly decreased
Procedure: as §1, §3, §2

ATG5 protein = experiment: Western blotting of tears, relative concentration measurement, after corticosteroid treatment; conditions: tears of SS DE patients; level before treatment 5.06±0.31; statistically significantly decreased
Procedure: (§4) Tears were collected from the Schirmer strips which absorbed the tear fluid as in Example 1. In order to extract tears, the Schirmer strips were placed in tubes containing extraction buffer (NaCl 0.5 M, Tween 20 0.5% in PBS). After one hour, the strips were transferred to a 0.5 ml tube with a hole at the bottom thereof using a cannula. The tube was inserted into a larger tube (1.5 ml). It was centrifuged at 12,000 rpm for 15 minutes. The centrifugal force caused the fluid to be drawn from the strip. Thus, the tear fluid passed through the center hole at the bottom of the small tube and was collected into the external 1.5 ml tube. The tear fluid was mixed with the sample-loading buffer, heated for 10 minutes, and centrifuged. Then, the protein concentration in the clear isolate was determined by using the BCA protein assay kit (Thermo Fisher Scientific, Rockford, IL). […] The improved chemical luminescence reagent (ECL; Amersham Biosciences, Sweden) was used to detect the protein band. […]
as §2

LC3B-II/I protein ratio = experiment: as above; conditions: tears of SS DE patients; level before treatment 1.87±0.10; statistically significantly decreased
Procedure: as §4, §2

[2] = tested on: Sjögren's syndrome dry eye patients; experiment: Clinical evaluation of ocular surface parameters before and after topical corticosteroid treatment; conditions: SS DE patients, after one month topical corticosteroid with artificial tears, mean ± SD
Procedure: […] participated in this Example (FIG. 1): 40 patients with Sjögren's syndrome dry eye (SS DE) (78 eyes), 24 patients with non-Sjögren's syndrome dry eye (non-SS DE) (48 eyes), and 16 normal healthy subjects as controls (25 eyes). 16 patients of the 40 patients with Sjögren's syndrome dry eye were treated with topical corticosteroid (4 times per one day for 1 month, 0.1% fluoromeladone, Sam-II Pharmaceutics Co. Seoul, Korea). […] All patients with Sjögren's syndrome dry eye were diagnosed with primary Sjögren's syndrome by a rheumatologist according to the 2012 Sjögren's International Collaborative Clinical Alliance (SICCA) classification criteria. This study excluded Sjögren's syndrome patients or subjects who had been treated with disease-modifying therapies. Due to the unique prevalence of females and males found in Sjögren's syndrome (F:M=9:1), only female patients participated in the study for the prevention of the data misinterpretation. Exclusion criteria were pregnant women, nurses, contact lens wearers, tear point closure patients, persons with eye surgery within 6 months, persons with acute or chronic eye disease other than dry eye syndrome, persons with concomitant allergies, persons with eyelid abnormalities, persons with Grade 2 or higher dysfunction of the meibomian gland. This study also excluded, as a subject, persons who had received other systemic treatments or other topical treatments other than artificial tears within the past 3 months.
The following ocular surface examinations were conducted on the 82 subjects; Schirmer I test, tear film breakup time (TBUT), ocular surface staining (OSS) score, and ocular surface disease index (OSDI) questionnaire.
The Schirmer I test was performed without anesthesia before injecting the drug into the eye. The standard Schirmer's strips were placed on the side ⅓ of the lower eyelid. After 5 minutes, the strips' wetness was measured by using a millimeter scale of the strips (Eagle Vision, Memphis, TN). Tear strips were cut horizontally and placed in cryovials. They were stored frozen for further analysis. To assess TBUT, one drop of the saline without preservatives was added to a fluorescein strip (Haag-Streit, Koeniz, Switzerland). It was applied to the conjunctiva of the lower eyelid. The patients blinked their eye 3 to 4 times for a few seconds for mixing thoroughly with the dye. Then, the test was conducted by using a slit lamp with cobalt blue light. The time until the defect appeared in the stained tear film was measured and recorded as TBUT. TBUT was measured three times and the score was averaged. OSS scores including conjunctival and corneal staining scores were evaluated according to the SICCA registry ocular examination protocol. First, one drop of 2% sterile fluorescein was put on the conjunctival sac to permeate. After one minute, the corneal staining score was assessed by evaluating fluorescein staining using a slit lamp with cobalt blue filter. The punctate epithelial erosions (PEE) stained with fluorescein were calculated and scored. When there is no PEE, the score is zero. When PEE is 1 to 5, the corneal score is 1; When PEE is 6 to 30, the score is 2; When PEE exceeds 30, the score is 3. Additional points were added when there were one or more fused staining portions, when there was staining in the pupil area of the cornea, or when there were one or more filaments in any part of the cornea. The maximum available score is 6 for each cornea. In order to measure the conjunctival staining score, fluorescein was washed with the saline without preservatives. Then, one drop of 1% Lissamine green dye (Leiter's Pharmacy San Jose, California) was applied to the lower conjunctival fornix of both eyes. […]

CC(=O)[C@@]1(O)CC[C@H]2[C@@H]3C[C@H](C)C4=CC(=O)C=C[C@]4(C)[C@@]3(F)[C@@H](O)C[C@@]21C [corticosteroid, fluoromeladone]
staining spotting pattern of the autodigestion marker in the conjunctiva [1]: normalized | ATG5 gene encoding level after corticosteroid treatment (ATG5 mRNA): approximately 1.23±0.27 times in change | LC3B-II gene encoding level after corticosteroid treatment (LC3B-II mRNA): ~2.57±0.48 times in change | ATG5 protein (vs β-actin) in tears after corticosteroid treatment (ATG5 protein): approximately 0.88±0.07 times in change | LC3B-II/I protein ratio in tears after corticosteroid treatment (LC3B-II/I protein ratio): ~1.27±0.08 times in change | Conjunctival staining score (0-6), after treatment ([2]; before treatment 2.13 ± 1.90, P 0.0018): 1.06 ± 1.70 | TBUT, after treatment ([2]; before treatment 2.16 ± 2.22, P 0.0007): 3.84 ± 1.90 s | Schirmer value, after treatment ([2]; before treatment 2.34 ± 1.66, P 0.0088): 3.78 ± 2.41 mm | Corneal staining score (0-6), after treatment ([2]; before treatment 2.78 ± 1.10, P <0.0001): 1.59 ± 1.21 | Ocular surface staining score (0-12), after treatment ([2]; before treatment 4.84 ± 3.08, P <0.0001): 2.53 ± 2.55 | OSDI score (0-100), after treatment ([2]; before treatment 50.19 ± 19.17, P 0.0411): 39.80 ± 17.89
